Counter-ions that a name gives are not always drawn.
Test system: 3D INSIGHT Islet Microtissues (primary human pancreatic islet cells)
Test: Glucagon secretion assay (glucagon ELISA) in 3D INSIGHT Islet Microtissues
Type: cell-based
Details: for dose dependency of the increase in glucagon secretion: Example 2, donor AFCS437, 1, 10 and 100 μM; for fold induction at 10 µM / fold induction at 100 µM: Homo sapiens, Pancreatic islet; for fold induction at 10 µM: donor AFBM114, 10 μM; for fold induction at 100 µM: donor AFBM114, 100 μM
Text: This and the following example make use of 3D INSIGHT® Islet Microtissues (InSphero AG, Schlieren, Switzerland), an in vitro model system for diabetes research produced by optimized dissociation and controlled scaffold-free reaggregation of primary human pancreatic islet cells. This allows precise control over the newly forming islet microtissue size and eliminates contaminating exocrine material while ensuring homogeneous and native-like distribution of endocrine cells within each tissue. The resulting islet tissues display long-term (>28 days) and robust function, enabling high throughput and longitudinal study of pancreatic islet function, regulation, and preservation.
1. The diabetes model system 3D INSIGHT® Islet Microtissues was obtained from a donor. 2. […] 3. Six replicates for each sample were tested. 4. L-arginine was used as a positive control. 5. DMSO was used a solvent for BF2649 hydrochloride and cyproheptadine hydrochloride; ddH2O was used as a solvent for L-arginine. […] 6. Glucagon secretion was quantified with a glucagon ELISA (Mercodia, Uppsala, Sweden). 7. Total ATP content was also measured during the assay.
Referring to FIG. 5, a timeline (500) of the assay is shown. Day 0 (510) involved producing the 3D INSIGHT® Human Islet Microtissues. On Day 5 (520), the samples were moved to a receiving plate. On Day 7 (530), the islet size, viability, and function were verified by quality control. On the final day of the test (540), the glucagon secretion assay was performed with ELISA, and ATP content was measured.
(§1) Before the assay, conditioned media was removed, islet microtissue washed twice with Kreb's Ringer HEPES buffer (KRHB) containing 5.5 mM glucose and were equilibrated in KRHB containing 5-5 mM glucose for 1.5 hours. Equilibration buffer was removed, islet microtissues were washed twice in KRHB with 5-5 mM glucose. Glucagon secretion was performed in KRHB with either 8 mM or 1 mM glucose for 2 hours in the presence of the test compounds. Conditioned KRHB were collected for analysis of glucagon content with an ELISA (Mercodia, Uppsala, Sweden).
A second donor (UNOS ID #AFCS437) was used as well.
as §1, with “5-5” for “5.5”

[1] = Example 1, donor AFBM114, 2 hours
[2] = Example 1, donor AFBM114, 2 hours, compared to vehicle at 1 mM glucose (FIG. 6)

SMILES: CN1CCC(=C2c3ccccc3C=Cc3ccccc32)CC1 [cyproheptadine hydrochloride]
- increase in glucagon secretion, 1 mM glucose versus 8 mM glucose [1]: higher at 1 mM glucose than at 8 mM glucose
- glucagon secretion (effect) [2]: increased glucagon secretion

SMILES: N=C(N)NCCC[C@H](N)C(=O)O [L-arginine]
- increase in glucagon secretion, 1 mM glucose versus 8 mM glucose [1]: higher at 1 mM glucose than at 8 mM glucose
- glucagon secretion (effect) [2]: increased glucagon secretion

SMILES: O=C(O)COCCN1CCN(C(c2ccccc2)c2ccc(Cl)cc2)CC1 (stereo not drawn) [Cetirizine, cetirizine dihydrochloride]
- dose dependency of the increase in glucagon secretion: much less pronounced
- glucagon secretion (effect) (Example 2, donor AFCS437, all tested concentrations, compared to vehicle at 1 mM glucose (FIG. 10)): only slightly increased glucagon secretion

SMILES: Clc1ccc(CCCOCCCN2CCCCC2)cc1 [BF2649 hydrochloride, 1-{3-[3-(4-chlorophenyl)propoxy]propyl}piperidine]
- dose dependence of the increase in glucagon secretion (Example 1, donor AFBM114, 1, 10 and 100 μM, 1 mM glucose): dose dependent
- increase in glucagon secretion, 1 mM glucose versus 8 mM glucose [1]: higher at 1 mM glucose than at 8 mM glucose
- glucagon secretion (effect) [2]: increased glucagon secretion
- glucagon secretion (effect) (Example 2, donor AFBM114, 10 μM, 8 mM glucose (FIG. 8)): increased glucagon secretion
- glucagon secretion (effect) (Example 2, donor AFBM114, 100 μM, 8 mM glucose (FIG. 8)): increased glucagon secretion
- increase in glucagon secretion compared with 5 mM arginine (Example 2, donor AFCS437, 100 μM): similarly to 5 mM arginine
- dose dependency of the increase in glucagon secretion: significant dose dependency
- fold induction at 10 µM (1 mM glucose (Example 1)): 1.8
- fold induction at 10 µM (8 mM glucose (Example 2)): 1.8
- fold induction at 100 µM (1 mM glucose (Example 1)): 7.5
- fold induction at 100 µM (8 mM glucose (Example 2)): 2
- increase in glucagon secretion compared with 5 mM arginine (previously tested donor (AFBM114), 100 μM): similarly to 5 mM arginine

— patent publication US20200405728A1, “METHODS OF PREVENTING AND TREATING HYPOGLYCEMIA IN TYPE 1 AND TYPE 2 DIABETES PATIENTS” (Ferox Therapeutics LLC, priority 2018, published 2020)
